# Results reported in patent publication US4330529A, “Antibacterial composition” (Fujisawa Pharmaceutical Co., Ltd., priority 1979, dated 1982).
# Like-named read-outs stand apart in the source and are kept apart here.
# Columns and labels:
# [1] = test system: Enterobacter cloacae 1401-4; assay: MIC and FIC, Nutrient agar (Tests 2, 3); type: cell-based; settings: E. cloacae 1401-4
# [2] = test system: Shigella flexneri Ia EW-8; assay: MIC and FIC, Nutrient agar (Test 2); type: cell-based; settings: IAEW8, S. flexneri Ia EW-8, 20 h
# Protocol: (§1) After the incubation was carried out at 37° C. for 20 hours, MIC values were determined.
# [3] = test system: Proteus vulgaris IAM-1025; assay: MIC and FIC, Nutrient agar (Test 2); type: cell-based; settings: IAM1025, P. vulgaris IAM-1025, 20 h
# Protocol: as §1
# (§2) FIC values and FIC Index were calculated in substantially the same manner as described in Test 1.
# [4] = test system: Salmonella paratyphi A-1015; assay: MIC and FIC, Nutrient agar (Test 2); type: cell-based; settings: Salmonella enterica; S. paratyphi A-1015; 20 h
# Protocol: as §1, §2
# [5] = test system: Salmonella enteritidis 1891; assay: MIC and FIC, Nutrient agar (Test 2); type: cell-based; settings: Salmonella enterica; S. enteritidis 1891; 20 h
# Protocol: as §1
# [6] = test system: Enterobacter aerogenes 1402-10; assay: MIC and FIC, Nutrient agar (Tests 2, 3); type: cell-based; settings: Klebsiella aerogenes, 140210; E. aerogenes 1402-10; 20 h; read-out: MIC
# [7] = test system: Salmonella typhimurium 1406; assay: MIC and FIC, Nutrient agar (Tests 2, 3); type: cell-based; settings: Salmonella enterica, TYPHIMURIUM, 20 h
# [8] = test system: Staphylococcus epidermidis 1601-1; assay: MIC and FIC, Nutrient agar (Tests 2, 3); type: cell-based; settings: 16011, S. epidermidis 1601-1, 20 h
# Protocol: as §1
# [9] = test system: Klebsiella pneumoniae NCTC 418; assay: MIC and FIC, Nutrient agar (Tests 2, 3); type: cell-based; settings: NCTC418, K. pneumoniae NCTC 418, 20 h
# Protocol: as §1
# [10] = test system: Alcaligenes faecalis 1311-1; assay: MIC and FIC, Nutrient agar (Test 2); type: cell-based; settings: 13111, A. faecalis 1311-1, 20 h
# Protocol: as §1, §2
# [11] = test system: Proteus mirabilis 1432-75; assay: MIC and FIC, Nutrient agar (Tests 2, 3); type: cell-based; settings: Proteus mirabilis, 143275; P. mirabilis 1432-75; 20 h; read-out: MIC
# Proteus morganii 1433-2 = assay: MIC and FIC, Nutrient agar (Tests 2, 3); type: cell-based; settings: Morganella morganii, 14332; P. morganii 1433-2; 20 h
# Protocol: as §1
# [12] = test system: Serratia marcescens 1421-4; assay: MIC and FIC, Nutrient agar (Tests 2, 3); type: cell-based
# [13] = test system: Escherichia coli 1341-18R^+; assay: MIC and FIC, Nutrient agar (Test 3); type: cell-based; settings: 20 h
# Citrobacter freundii 35 = assay: MIC and FIC, Nutrient agar (Tests 6, 7, 9); type: cell-based; settings: C. freundii 35, 18 h
# Proteus vulgaris 7 = assay: MIC and FIC, Nutrient agar (Tests 7, 9); type: cell-based; settings: P. vulgaris 7
# [14] = test system: Pseudomonas aeruginosa 1101-76; assay: MIC and FIC, Nutrient agar (Test 3); type: cell-based; settings: Pseudomonas aeruginosa, 110176; P. aeruginosa 1101-76; 20 h; read-out: MIC
# Proteus rettgeri 1434-3 = assay: MIC and FIC, Nutrient agar (Test 3); type: cell-based; settings: Providencia rettgeri, 14343; P. rettgeri 1434-3; 20 h
# Protocol: as §1, §2
# [15] = test system: Pseudomonas aeruginosa No.5; assay: MIC and FIC, Nutrient agar, multiple inoculator (Tests 4, 5); type: cell-based; settings: P. aeruginosa No.5, 10^8 cells/ml, 20 h
# Protocol: as §1
# [16] = test system: Pseudomonas aeruginosa No.15; assay: MIC and FIC, Nutrient agar, multiple inoculator (Test 4); type: cell-based; settings: P. aeruginosa No.15, 10^8 cells/ml, 20 h
# Protocol: as §1, §2
# Escherichia coli No.14 = assay: as above; type: cell-based; settings: E. coli No.14, 10^8 cells/ml, 20 h
# Protocol: as §1
# [17] = test system: Pseudomonas aeruginosa No.7; assay: as above; type: cell-based; settings: P. aeruginosa No.7, 10^8 cells/ml, 20 h
# Protocol: as §1, §2
# [18] = test system: Pseudomonas aeruginosa No.14; assay: as above; type: cell-based; settings: P. aeruginosa No.14, 10^8 cells/ml, 20 h
# Protocol: as §1, §2
# [19] = test system: Pseudomonas aeruginosa No.9; assay: as above; type: cell-based; settings: P. aeruginosa No.9, 10^8 cells/ml, 20 h
# Protocol: as §1, §2
# [20] = test system: Pseudomonas aeruginosa 77; assay: MIC and FIC, Nutrient agar (Test 7); type: cell-based; settings: P. aeruginosa 77, 18 h
# Protocol: as §2
# Proteus mirabilis 48 = assay: MIC and FIC, Nutrient agar (Test 7); type: cell-based; settings: P. mirabilis 48, 18 h
# Protocol: as §2
# Staphylococcus aureus 2 = assay: MIC and FIC, Nutrient agar (Test 7); type: cell-based; settings: S. aureus 2, 18 h
# Protocol: as §2
# [21] = test system: Enterobacter aerogenes 25; assay: microbe, parasite or virus in culture; settings: Klebsiella aerogenes, 25, 18 h
# Escherichia coli 82 = assay: MIC and FIC, Nutrient agar (Test 7); type: cell-based; settings: E. coli 82, 18 h
# Protocol: as §2
# [22] = test system: Pseudomonas aeruginosa 42; assay: MIC and FIC, Nutrient agar (Test 7); type: cell-based
# Protocol: as §2
# Enterobacter aerogenes 7 = assay: MIC and FIC, Nutrient agar (Tests 6, 7, 9); type: cell-based; settings: E. aerogenes 7, 18 h
# Protocol: as §2
# Proteus mirabilis 5 = assay: MIC and FIC, Nutrient agar (Test 7); type: cell-based; settings: P. mirabilis 5, 18 h
# Protocol: as §2
# Serratia marcescens 27 = assay: MIC and FIC, Nutrient agar (Test 7); type: cell-based; settings: S. marcescens 27, 18 h
# Protocol: as §2
# Staphylococcus aureus 1 = assay: MIC and FIC, Nutrient agar (Test 7); type: cell-based; settings: S. aureus 1, 18 h
# Protocol: as §2
# Escherichia coli 116 = assay: MIC and FIC, Nutrient agar (Test 7); type: cell-based; settings: E. coli 116, 18 h
# Protocol: as §2
# Enterobacter cloacae 18 = assay: MIC and FIC, Nutrient agar (Tests 7, 9); type: cell-based; settings: Enterobacter cloacae, 18, 18 h, E. cloacae 18, read-out: MIC
# Protocol: as §2
# Proteus vulgaris 22 = assay: MIC and FIC, Nutrient agar (Test 9); type: cell-based; settings: P. vulgaris 22, 18 h
# Protocol: as §2
# Serratia marcescens 4 = assay: MIC and FIC, Nutrient agar (Test 9); type: cell-based; settings: S. marcescens 4, 18 h
# Protocol: as §2
# Citrobacter freundii 63 = assay: MIC and FIC, Nutrient agar (Test 9); type: cell-based; settings: C. freundii 63, 18 h
# Protocol: as §2
# Staphylococcus aureus 3 = assay: MIC and FIC, Nutrient agar (Tests 6, 7); type: cell-based; settings: S. aureus 3; 18 h
# Protocol: as §2
# Escherichia coli 99 = assay: MIC and FIC, Nutrient agar (Test 6); settings: E. coli 99; 18 h
# Protocol: as §2
# [23] = test system: Pseudomonas aeruginosa No.18; assay: MIC and FIC, Nutrient agar, multiple inoculator (Test 5); type: cell-based; settings: P. aeruginosa No.18; 10^8 cells/ml, 20 h
# Protocol: as §1, §2
# Serratia marcescens 9 = assay: MIC and FIC, Nutrient agar (Test 6); type: cell-based; settings: S. marcescens 9; 18 h
# Protocol: as §2
# [24] = test system: Pseudomonas aeruginosa No.12; assay: MIC and FIC, Nutrient agar, multiple inoculator (Test 5); type: cell-based; settings: P. aeruginosa No.12; 10^8 cells/ml, 20 h
# Protocol: as §1, §2
# [25] = test system: Pseudomonas aeruginosa No.13; assay: as above; type: cell-based; settings: P. aeruginosa No.13; 10^8 cells/ml, 20 h
# Protocol: as §1, §2
# [26] = test system: Pseudomonas aeruginosa No.11; assay: as above; type: cell-based; settings: P. aeruginosa No.11; 10^8 cells/ml, 20 h
# Protocol: as §1, §2
# Klebsiella pneumoniae 8 = assay: Isobologram, growth in Nutrient broth in various combination ratios (Test 8); type: cell-based; parameters: key: +: the test microorganism grew; -: the test microorganism did not grow; settings: phosphonic acid salt 0
# Protocol: After the incubation was carried out at 37° C. for 18 hours, the growth of the test organism was observed.
# Proteus vulgaris 5 = assay: MIC and FIC, Nutrient agar (Test 6); type: cell-based; settings: P. vulgaris 5; 18 h
# Protocol: as §2
# [27] = Klebsiella aerogenes, read-out: MIC
compound,measurement,setting,value
"CC1(C)S[C@@H]2[C@H](NC(=O)[C@H](N)c3ccccc3)C(=O)N2[C@H]1C(=O)O [B (Table 2), ampicillin]",MIC,"[1]; Enterobacter cloacae, 14014, 20 h",100 µg/mL
same,MIC,[2],0.78 µg/mL
same,MIC,[3],0.78 µg/mL
same,MIC,[4],0.39 µg/mL
same,MIC,[5],0.39 µg/mL
same,MIC,[6],200 µg/mL
same,MIC,[7],0.39 µg/mL
same,MIC,[8],0.2 µg/mL
same,MIC,[9],12.5 µg/mL
same,MIC,[10],6.25 µg/mL
same,MIC,[11],0.39 µg/mL
same,MIC,Proteus morganii 1433-2,25 µg/mL
same,MIC,"[12]; Serratia marcescens, 14214, 20 h",25 µg/mL
"Cc1nnc(SCC2=C(C(=O)O)N3C(=O)[C@@H](NC(=O)Cn4cnnn4)[C@H]3SC2)s1 [B (Table 3), cefazolin]",MIC,"[1]; Enterobacter cloacae, 14014, 20 h, read-out: MIC",≥ 400 µg/mL
same,MIC,[13],3.13 µg/mL
same,MIC,"Citrobacter freundii 35; Citrobacter freundii, read-out: MIC",50 µg/mL
same,MIC,[6],12.5 µg/mL
same,MIC,[8],0.39 µg/mL
same,MIC,"Proteus vulgaris 7; Proteus vulgaris, 18 h, read-out: MIC",100 µg/mL
same,MIC,[14],≥ 400 µg/mL
same,MIC,[9],1.56 µg/mL
same,MIC,Proteus morganii 1433-2,25 µg/mL
same,MIC,Proteus rettgeri 1434-3,6.25 µg/mL
same,MIC,"[12]; Serratia marcescens, 14214, S. marcescens 1421-4, agar, 20 h, read-out: MIC",400 µg/mL
"CC1(C)S[C@@H]2[C@H](NC(=O)C(C(=O)O)c3ccccc3)C(=O)N2[C@H]1C(=O)O (some centres unmarked) [B (Table 6), carbenicillin]",MIC,"[15]; Pseudomonas aeruginosa, read-out: MIC",50 µg/mL
same,MIC,[16],800 µg/mL
same,MIC,Escherichia coli No.14,12.5 µg/mL
same,MIC,[17],> 800 µg/mL
same,MIC,[18],> 800 µg/mL
same,MIC,[19],> 800 µg/mL
"NC[C@@H]1CC[C@@H](N)[C@@H](O[C@H]2[C@H](O)[C@@H](O[C@H]3O[C@H](CO)[C@@H](O)[C@H](N)[C@H]3O)[C@H](N)C[C@@H]2N)O1 [B (Table 10), dibekacin]",MIC,"Citrobacter freundii 35; Citrobacter freundii, 35, 18 h",6.25 µg/mL
same,MIC,[20],3.13 µg/mL
same,MIC,Proteus mirabilis 48,12.5 µg/mL
same,MIC,"Proteus vulgaris 7; Proteus vulgaris, 7, 18 h",50 µg/mL
same,MIC,Staphylococcus aureus 2,1.56 µg/mL
same,MIC,[21],6.25 µg/mL
same,MIC,Escherichia coli 82,6.25 µg/mL
"NCC[C@H](O)C(=O)N[C@@H]1C[C@H](N)[C@@H](O[C@H]2O[C@H](CN)[C@@H](O)[C@H](O)[C@H]2O)[C@H](O)[C@H]1O[C@H]1O[C@H](CO)[C@@H](O)[C@H](N)[C@H]1O [B (Table 11), amikacin]",MIC,"[22]; Pseudomonas aeruginosa, P. aeruginosa 42, 18 h, read-out: MIC",6.25 µg/mL
same,MIC,Enterobacter aerogenes 7; [27],6.25 µg/mL
same,MIC,Proteus mirabilis 5,3.13 µg/mL
same,MIC,Serratia marcescens 27,12.5 µg/mL
same,MIC,Staphylococcus aureus 1,0.78 µg/mL
"NC[C@H]1O[C@H](O[C@H]2[C@H](O)[C@@H](O[C@H]3O[C@H](CO)[C@@H](O)[C@H](N)[C@H]3O)[C@H](N)C[C@@H]2N)[C@H](N)[C@@H](O)[C@@H]1O [B (Table 12), bekanamycin]",MIC,"[22]; Pseudomonas aeruginosa, 42, 18 h",100 µg/mL
same,MIC,Enterobacter aerogenes 7; [27],6.25 µg/mL
same,MIC,Escherichia coli 116,200 µg/mL
same,MIC,Enterobacter cloacae 18,6.25 µg/mL
"CC1=C(C(=O)O)N2C(=O)[C@@H](NC(=O)[C@H](N)c3ccccc3)[C@H]2SC1 [B (Table 14), Cephalexin]",MIC,Proteus vulgaris 22,25 µg/mL
same,MIC,Enterobacter aerogenes 7; [27],100 µg/mL
same,MIC,Serratia marcescens 4,400 µg/mL
same,MIC,Enterobacter cloacae 18,100 µg/mL
same,MIC,Citrobacter freundii 63,400 µg/mL
gentamicin [B (Table 7)],MIC,Staphylococcus aureus 3,0.39 µg/mL
same,MIC,Escherichia coli 99,12.5 µg/mL
same,MIC,Citrobacter freundii 35,3.13 µg/mL
same,MIC,[23],50 µg/mL
same,MIC,Serratia marcescens 9,50 µg/mL
same,MIC,Enterobacter aerogenes 7,6.25 µg/mL
same,MIC,[24],12.5 µg/mL
same,MIC,[15],50 µg/mL
same,MIC,[25],100 µg/mL
same,MIC,[26],3.13 µg/mL
same,growth of the test organism,Klebsiella pneumoniae 8; gentamicin sulfate 0.001 mcg/ml,+
same,growth of the test organism,Klebsiella pneumoniae 8; gentamicin sulfate 0.003 mcg/ml,+
same,growth of the test organism,Klebsiella pneumoniae 8; gentamicin sulfate 0.006 mcg/ml,+
same,growth of the test organism,Klebsiella pneumoniae 8; gentamicin sulfate 0.01 mcg/ml,+
same,growth of the test organism,Klebsiella pneumoniae 8; gentamicin sulfate 0.025 mcg/ml,+
same,growth of the test organism,Klebsiella pneumoniae 8; gentamicin sulfate 0.05 mcg/ml,-
same,MIC,Proteus vulgaris 5,6.25 µg/mL
